Experimental data: patent publication EP0726072A2, “Composition for the treatment of hypertension and congestive heart failure, containing an angiotensin II antagonist and an endopeptidase inhibitor” (BRISTOL-MYERS SQUIBB COMPANY, priority 1995, dated 1996)

System: cardiomyopathic hamsters
Assay: Cardiovascular effects in conscious cardiomyopathic hamsters with compensated heart failure
Format: in vivo, hamsters of the BIO TO-2 strain
Settings: for left ventricular end diastolic pressure, effect in words / left ventricular systolic pressure, effect in words: summary of the discussion, up to 90 minutes after last treatment
Experimental: The studies described in this experiment were conducted in male hamsters of the BIO TO-2 strain when they were approximately 260 days of age and weighed on average 115 g. These animals develop a genetic form of cardiomyopathy that progresses uniformly among animals through different stages of heart failure. By 240 - 300 days of age the cardiomyopathic hamsters are characterized (as compared with control hamsters) by low mean arterial pressure, a 40% reduction in cardiac output and a decrease in renal blood flow. They display elevated cardiac filling pressure, depressed ventricular function, increased peripheral vascular resistance and have an 8-10-fold increase in plasma atrial natriuretic peptide concentration.
The experiments were conducted in conscious, unrestrained, cardiomyphathic hamsters three hours after placement of cardivascular catheters using brief anesthesia. The catheters allowed measurement of mean arterial pressure, left ventricular end diastolic pressure, left ventricular systolic pressure and heart rate, and provided a means for the administration of agents intravenously.
In this series of experiments baseline measurements of left ventricular end diastolic pressure, left ventricular systolic pressure and heart rate were determined in groups of conscious cardiomyopathic hamsters. Compounds or vehicle were administered intravenously, and measurements were repeated at 30-minute intervals up to 90 minutes after administration of the last agent. BMS 186295 was administered at 30 µmol/kg, i.v. (0.3 ml) followed by a continuous i.v. infusion at 1 µmol/kg per min (0.01 ml/min). BMS 186295 was prepared in 0.028 M potassium hydroxide and diluted to a final concentration of 0.17 M potassium hydroxide. Potassium hydroxide solution (0.17 M) was administered intravenously to the vehicle group at 0.3 ml followed by a continuous infusion at 0.01 ml/min. SQ 28603 was dissolved in 0.84% sodium bicarbonate and administered at 30 µmol/kg, i.v. This dose of SQ 28603 was previously shown to result in a doubling of plasma atrial natriuretic peptide concentration within 90 minutes in this model. One group of cardiomyopathic hamsters received the combination of BMS 186295 and SQ 28603. In this group BMS 186295 was administered according to the same dosage regimen described above; 30 minutes after the bolus injection of BMS 186295, SQ 28603 was administered at 30 µmol/kg, i.v.
Differences in age, body weight and baseline values among groups were evaluated by analysis of variance. Differences in changes from baseline among groups were evaluated by analysis of covariance with repeated measures and contrasts. The baseline value for each variable was used as the covariate. The level of significance was taken at P < 0.05. All data are expressed as mean ± standard error of the mean.

[1] = 30′, BMS 186295 30 µmol/kg i.v. + 1 µmol/kg per min, SQ 28603 30 µmol/kg i.v.
[2] = 60′, BMS 186295 30 µmol/kg i.v. + 1 µmol/kg per min, SQ 28603 30 µmol/kg i.v.
[3] = 90′, BMS 186295 30 µmol/kg i.v. + 1 µmol/kg per min, SQ 28603 30 µmol/kg i.v.
[4] = 30 minutes after last treatment, BMS 186295 30 µmol/kg i.v. + 1 µmol/kg per min, SQ 28603 30 µmol/kg i.v.
[5] = 60 minutes after last treatment, BMS 186295 30 µmol/kg i.v. + 1 µmol/kg per min, SQ 28603 30 µmol/kg i.v.
[6] = 90 minutes after last treatment, BMS 186295 30 µmol/kg i.v. + 1 µmol/kg per min, SQ 28603 30 µmol/kg i.v.
[7] = table line headed 'BMS 186295 SQ 28603', between Baseline and 30′ (time of treatment)

SMILES | Heart Rate [1] | Left Ventricular End Diastolic Pressure [1] | Left Ventricular Systolic Pressure [1] | Heart Rate [2] | Left Ventricular End Diastolic Pressure [2] | Left Ventricular Systolic Pressure [2] | Heart Rate [3] | Left Ventricular End Diastolic Pressure [3] | Left Ventricular Systolic Pressure [3] | Left Ventricular End Diastolic Pressure, Change From Baseline [4] | Left Ventricular Systolic Pressure, Change From Baseline [4] | Left Ventricular End Diastolic Pressure, Change From Baseline [5] | Left Ventricular Systolic Pressure, Change From Baseline [5] | Left Ventricular End Diastolic Pressure, Change From Baseline [6] | Left Ventricular Systolic Pressure, Change From Baseline [6] | Heart Rate (Baseline, before treatment) | Left Ventricular End Diastolic Pressure (Baseline, before treatment) | Left Ventricular Systolic Pressure (Baseline, before treatment) | left ventricular end diastolic pressure, effect in words | left ventricular systolic pressure, effect in words | other results
O=C(O)CCNC(=O)C(CS)Cc1ccccc1 (racemic) [SQ 28603, (±)-N-[2-(mercaptomethyl)-1-oxo-3-phenylpropyl]-β-alanine] | 381 ± 9 beats/min | 14 ± 2 mm Hg | 109 ± 5 mm Hg | 366 ± 9 beats/min | 17 ± 3 mm Hg | 105 ± 4 mm Hg | 378 ± 8 beats/min | 16 ± 3 mm Hg | 105 ± 5 mm Hg | 4 ± 1 mm Hg | -8 ± 1 mm Hg | -1 ± 2 mm Hg | -12 ± 3 mm Hg | -2 ± 1 mm Hg | -12 ± 2 mm Hg | 378 ± 12 beats/min | 18 ± 3 mm Hg | 117 ± 5 mm Hg | smaller decreases | smaller decreases | Heart Rate, Change From Baseline [4]: 3 ± 8 mm Hg; Heart Rate, Change From Baseline [5]: -13 ± 12 mm Hg; Heart Rate, Change From Baseline [6]: -1 ± 9 mm Hg; Heart Rate [7]: 380 ± 7 beats/min; Left Ventricular End Diastolic Pressure [7]: 14 ± 3 mm Hg; Left Ventricular Systolic Pressure [7]: 108 ± 5 mm Hg
CCCCC1=NC2(CCCC2)C(=O)N1Cc1ccc(-c2ccccc2-c2nnn[nH]2)cc1 [BMS 186295, 2-butyl-6,7,8,9-tetrahydro-3-[[2'-(1H-tetrazol-5-yl)[1,1'-biphenyl]-4-yl]-methyl]-1,3-diazaspiro[4.4]nonan-4-one] | 363 ± 20 beats/min | 16 ± 2 mm Hg | 114 ± 2 mm Hg | 367 ± 18 beats/min | 16 ± 2 mm Hg | 111 ± 2 mm Hg | 369 ± 28 beats/min | 18 ± 3 mm Hg | 112 ± 5 mm Hg | -1 ± 1 mm Hg | 2 ± 2 mm Hg | -1 ± 1 mm Hg | -1 ± 2 mm Hg | 1 ± 2 mm Hg | 1 ± 5 mm Hg | 338 ± 16 beats/min | 17 ± 2 mm Hg | 112 ± 2 mm Hg | no significant effects | no significant effects | Heart Rate [7]: 364 ± 14 beats/min; Left Ventricular End Diastolic Pressure [7]: 18 ± 2 mm Hg; Left Ventricular Systolic Pressure [7]: 111 ± 1 mm Hg
